The subject of one assay is Erysiphae graminis. As to the kind of experiment: Fungicidal activity against barley powdery mildew (BPM) disease, control value. In kind it is in vivo. To be noted: for pest or weed control at 2 ppm / pest or weed control at 10 ppm / pest or weed control at 50 ppm / pest or weed control at 100 ppm: 168 h, read-out: BPM control value (C.V.).
In another assay the test system is Phytophthora infestans. The assay can be described thus: whole plant or invertebrate. In kind it is in vivo. The conditions noted are these: for TLB control value (C.V.): tomato late blight; for pest or weed control at 2 ppm / pest or weed control at 10 ppm / pest or weed control at 50 ppm / pest or weed control at 100 ppm: Phytophthora infestans, in Solanum lycopersicum, read-out: TLB control value (C.V.).

Another assay deals with Puccinia recondita. The assay can be described thus: Fungicidal activity against wheat leaf rust (WLR) disease, control value. In kind it is in vivo. The conditions noted are these: for pest or weed control at 2 ppm / pest or weed control at 10 ppm / pest or weed control at 50 ppm / pest or weed control at 100 ppm: read-out: WLR control value (C.V.).
Another assay concerns Rhizoctonia solani AG-1. The assay can be described thus: Fungicidal activity against rice sheath blight (RSB) disease, control value. To be noted: for RSB control value (C.V.): rice sheath blight; for pest or weed control at 2 ppm / pest or weed control at 10 ppm / pest or weed control at 50 ppm / pest or weed control at 100 ppm: Rhizoctonia solani, AG1, in Oryza sativa, read-out: RSB control value (C.V.).

For assay [1], the system named is Pyricularia oryzae Carvara KA301. The assay can be described thus: whole plant or invertebrate. The conditions noted are these: for RCB control value (C.V.): rice blast; for pest or weed control at 2 ppm / pest or weed control at 10 ppm / pest or weed control at 50 ppm / pest or weed control at 100 ppm: Pyricularia oryzae, read-out: RCB control value (C.V.). In kind it is in vivo.

A further assay concerns Botrytis cinerae. As to the kind of experiment: Fungicidal activity against cucumber gray mold rot (CGM) disease, control value. In kind it is in vivo. To be noted: for CGM control value (C.V.) / pest or weed control at 100 ppm: 100 ppm.
Where [2] appears, read: Botrytis, read-out: CGM control value (C.V.).

We go through seven compounds from patent publication US8410302B2, “Methoxyimino compounds and fungicide composition comprising same” (Kyung Nong Corporation, priority 2007, dated 2013).

Where two headings read alike, the source gives them in different places.

Consider `CNC(=O)/C(=N/OC)c1ccccc1CON=C(C)c1cccc(C=C(Cl)Br)c1` [Example 36, (E)-2-[[[[[2-[3-(2-bromo-2-chlorovinyl)phenyl](1-methyl)methylidene]amino]oxy]methyl]phenyl]-2-methoxyimino-N-methylacetamide], for which the “BPM control value (C.V.)” value in the assay with Erysiphae graminis (2 ppm, barley powdery mildew) turned out to be 100%; in the assay with Erysiphae graminis (10 ppm, barley powdery mildew), 100%; in the assay with Erysiphae graminis (50 ppm, barley powdery mildew) it was 100%; in the assay with Erysiphae graminis (100 ppm, barley powdery mildew), 100%. For the same compound, the “TLB control value (C.V.)” value in the assay on Phytophthora infestans (2 ppm) is 30%; in the assay with Phytophthora infestans (10 ppm), 80%; in the assay with Phytophthora infestans (50 ppm), 100%; in the assay with Phytophthora infestans (100 ppm) it was 100%. Also, the “WLR control value (C.V.)” value in the assay with Puccinia recondita (2 ppm, wheat leaf rust) worked out at 100%; with Puccinia recondita (10 ppm, wheat leaf rust), 100%; in the assay with Puccinia recondita (50 ppm, wheat leaf rust) it was 100%; in the assay with Puccinia recondita (100 ppm, wheat leaf rust) it was 100%. The “RSB control value (C.V.)” value was determined as 67% with Rhizoctonia solani AG-1 (2 ppm), 90% with Rhizoctonia solani AG-1 (10 ppm), 98% with Rhizoctonia solani AG-1 (50 ppm) and 100% in the assay on Rhizoctonia solani AG-1 (100 ppm). Besides, the “RCB control value (C.V.)” value in assay [1] (2 ppm), in assay [1] (10 ppm), in assay [1] (50 ppm) and in assay [1] (100 ppm) was 100% throughout. In addition, the “CGM control value (C.V.)” value in the assay on Botrytis cinerae (cucumber gray mold rot) was 65%.

Take `CO/N=C(/C(=O)OC)c1ccccc1COc1ccc(F)cc1C=C(Cl)Cl` [Example 55, methyl-(E)-2-(2-((2-(2,2-dichlorovinyl)-4-fluorophenoxy)methyl)phenyl)-2-methoxyiminoacetate]: the pest or weed control at 2 ppm in the assay with Erysiphae graminis (2 ppm) is 100%; in the assay with Phytophthora infestans it was 99%; in the assay with Puccinia recondita (Puccinia recondita, 2 ppm), 100%; in the assay with Rhizoctonia solani AG-1, 90%; in assay [1] it was 100%. Moreover, the pest or weed control at 10 ppm is 100% in the assay with Erysiphae graminis (10 ppm); 100% with Phytophthora infestans; 100% in the assay with Puccinia recondita (Puccinia recondita, 10 ppm); 100% in the assay on Rhizoctonia solani AG-1; 100% in assay [1]. The pest or weed control at 50 ppm in the assay on Erysiphae graminis (50 ppm) came to 100%; with Phytophthora infestans, 100%; with Puccinia recondita (Puccinia recondita, 50 ppm), 100%; in the assay on Rhizoctonia solani AG-1, 100%; in assay [1], 100%; with Botrytis cinerae (Botrytis, 50 ppm, read-out: CGM control value (C.V.)), 25%. Also, the pest or weed control at 100 ppm in the assay with Erysiphae graminis (100 ppm) was determined as 100%; in the assay with Phytophthora infestans, 100%; in the assay with Puccinia recondita (Puccinia recondita, 100 ppm), 100%; with Rhizoctonia solani AG-1, 100%; in assay [1], 100%; in the assay on Botrytis cinerae (setting [2]) it was 75%.

Take `CNC(=O)/C(=N/OC)c1ccccc1COc1cccc(C=C(Cl)Cl)c1` [Example 2, (E)-2-(2-((3-(2,2-dichlorovinyl)phenoxy)methyl)phenyl)-2-methoxyimino-N-methylacetamide]: the pest or weed control at 2 ppm amounted to 100% in the assay with Erysiphae graminis (Hordeum vulgare, 2 ppm, barley powdery mildew); 98% in the assay on Phytophthora infestans; 30% in the assay with Puccinia recondita (2 ppm, wheat leaf rust); 90% in assay [1]. The pest or weed control at 10 ppm is 100% in the assay with Erysiphae graminis (Hordeum vulgare, 10 ppm, barley powdery mildew); 100% in the assay with Phytophthora infestans; 90% in the assay with Puccinia recondita (10 ppm, wheat leaf rust); 97% in assay [1]. Besides, the pest or weed control at 50 ppm turned out to be 100% in the assay with Erysiphae graminis (Hordeum vulgare, 50 ppm, barley powdery mildew); 100% in the assay with Phytophthora infestans; 98% with Puccinia recondita (50 ppm, wheat leaf rust); 100% in assay [1]. Also, the pest or weed control at 100 ppm in the assay on Erysiphae graminis (Hordeum vulgare, 100 ppm, barley powdery mildew) is 100%; with Phytophthora infestans, 100%; in the assay with Puccinia recondita (100 ppm, wheat leaf rust), 100%; with Rhizoctonia solani AG-1, 32%; in assay [1] it was 100%; in the assay on Botrytis cinerae (Botrytis, cucumber gray mold rot, read-out: CGM control value (C.V.)), 34%.

`CO/N=C(/C(=O)OC)c1ccccc1CON=C(C)c1ccc(C=C(F)Cl)cc1` [Example 33, methyl-(E)-2-[[[[[2-[4-(2-chloro-2-fluorovinyl)phenyl](1-methyl)methylidene]amino]oxy]methyl]phenyl]-2-methoxyiminoacetate]: in the assay on Erysiphae graminis (100 ppm, barley powdery mildew), the “BPM control value (C.V.)” value was found to be 80%. The “TLB control value (C.V.)” value in the assay with Phytophthora infestans (100 ppm) was 60%. For the same compound, the “WLR control value (C.V.)” value with Puccinia recondita (50 ppm, wheat leaf rust) is 40%; in the assay on Puccinia recondita (100 ppm, wheat leaf rust), 90%. Also, in the assay on Rhizoctonia solani AG-1 (100 ppm), the “RSB control value (C.V.)” value turned out to be 67%. The “RCB control value (C.V.)” value in assay [1] (50 ppm) was determined as 70%; in assay [1] (100 ppm), 95%. Besides, the “CGM control value (C.V.)” value with Botrytis cinerae (cucumber gray mold rot) was determined as 15%.

In the case of `CNC(=O)/C(=N/OC)c1ccccc1COc1cc(C=C(Br)Br)ccc1OC` [Example 72, (E)-2-(2-((5-(2,2-dibromovinyl)-2-methoxyphenoxy)methyl)phenyl)-2-methoxyimino-N-methylacetamide], the pest or weed control at 2 ppm with Erysiphae graminis (2 ppm) amounted to 98%; with Phytophthora infestans it was 70%; in the assay with Puccinia recondita (Puccinia recondita, 2 ppm) it was 97%; with Rhizoctonia solani AG-1, 75%; in assay [1], 80%. In addition, the pest or weed control at 10 ppm in the assay on Erysiphae graminis (10 ppm) was 100%; in the assay with Phytophthora infestans it was 90%; in the assay with Puccinia recondita (Puccinia recondita, 10 ppm) it was 100%; in the assay on Rhizoctonia solani AG-1, 98%; in assay [1] it was 99%. The pest or weed control at 50 ppm in the assay on Erysiphae graminis (50 ppm) stood at 100%; with Phytophthora infestans it was 100%; with Puccinia recondita (Puccinia recondita, 50 ppm), 100%; with Rhizoctonia solani AG-1, 100%; in assay [1] it was 100%. In addition, the pest or weed control at 100 ppm is 100% with Erysiphae graminis (100 ppm); 100% with Phytophthora infestans; 100% in the assay on Puccinia recondita (Puccinia recondita, 100 ppm); 100% in the assay with Rhizoctonia solani AG-1; 100% in assay [1]; 79% in the assay with Botrytis cinerae (setting [2]).

With `CNC(=O)/C(=N/OC)c1ccccc1CON=C(C)c1ccc(C=C(F)Cl)cc1` [Example 34, (E)-2-[[[[[2-[4-(2-chloro-2-fluorovinyl)phenyl](1-methyl)methylidene]amino]oxy]methyl]phenyl]-2-methoxyimino-N-methylacetamide], the “BPM control value (C.V.)” value in the assay with Erysiphae graminis (100 ppm, barley powdery mildew) is reported as 60%. The “TLB control value (C.V.)” value amounted to 35% in the assay with Phytophthora infestans (50 ppm) and 98% with Phytophthora infestans (100 ppm). Moreover, in the assay on Puccinia recondita (100 ppm, wheat leaf rust), the “WLR control value (C.V.)” value came to 72%. In addition, in the assay with Rhizoctonia solani AG-1 (100 ppm), the “RSB control value (C.V.)” value amounted to 15%. For the same compound, the “RCB control value (C.V.)” value was 90% in assay [1] (50 ppm) and 95% in assay [1] (100 ppm). The “CGM control value (C.V.)” value in the assay on Botrytis cinerae (cucumber gray mold rot) is recorded as 40%.

Regarding `CCOc1cc(C=C(Cl)Cl)ccc1OCc1ccccc1/C(=N\OC)C(=O)OC` [Example 59, methyl-(E)-2-(2-((4-(2,2-dichlorovinyl)-2-ethoxyphenoxy)methyl)phenyl)-2-methoxyiminoacetate], the pest or weed control at 2 ppm with Erysiphae graminis (2 ppm) amounted to 98%; in the assay with Phytophthora infestans it was 98%; in the assay on Puccinia recondita (Puccinia recondita, 2 ppm), 90%; in the assay on Rhizoctonia solani AG-1, 98%; in assay [1], 97%. Further, the pest or weed control at 10 ppm is 100% in the assay with Erysiphae graminis (10 ppm); 100% in the assay on Phytophthora infestans; 100% with Puccinia recondita (Puccinia recondita, 10 ppm); 100% in the assay with Rhizoctonia solani AG-1; 100% in assay [1]. Also, the pest or weed control at 50 ppm worked out at 100% in the assay with Erysiphae graminis (50 ppm); 100% in the assay on Phytophthora infestans; 100% in the assay on Puccinia recondita (Puccinia recondita, 50 ppm); 100% in the assay with Rhizoctonia solani AG-1; 100% in assay [1]. In addition, the pest or weed control at 100 ppm is 100% in the assay on Erysiphae graminis (100 ppm); 100% in the assay with Phytophthora infestans; 100% in the assay on Puccinia recondita (Puccinia recondita, 100 ppm); 100% in the assay on Rhizoctonia solani AG-1; 100% in assay [1]; 65% in the assay with Botrytis cinerae (setting [2]).
